Source: patent US20210213137A1, “COMPOSITIONS TO TREAT ULTRAVIOLET (UV)-INDUCED SKIN INJURY” (Mayo Foundation for Medical Education and Research, priority 2016, published 2021)

Key:
mouse ears = experiment: UVB-induced ear edema (ear thickness) in mice; assay type: in vivo
Excerpt: FIG. 1A. Timeline of the acute and chronic effects of UV-induced skin injury. FIG. 1B. Quantitative PCR was used to measure induction of VEGF transcript in mouse skin upon exposure to various doses of UVB (n=3 mice/group). FIG. 1C. Representative photographs of mouse ears two days after UVB exposure. UVB induces angiogenesis in the ear of mice. FIG. 1D. Systemic administration of VEGF antibody 2C3 reduces edema as shown by 50% decrease in ear thickness (p=0.0101, n=4).
(§1) FIG. 2A. […] FIG. 2B. […] 1×1 cm are on the right flank of the mice were exposed to UVB 3 times/week for 3 weeks (n=5). Either vehicle or GNP-VEGF antibody was applied to the area 2 hours after exposure. FIG. 2C. […] All treatments were applied 2 hours post-UVB exposure. Data representative of 2 experiments, n=5. Ear thickness was measured 2 days after UVB exposure. Avastin® and 2C3 are VEGF antibodies. FIG. 2D. Topical administration of GNP-VEGF antibody or small molecular inhibitor (SMI) of VEGF signaling, sorafenib, reduces edema. All treatments were applied 2 hours post UVB exposure. Data representative of 2 experiments, n=5. Ear thickness was measured 2 days after UVB exposure.

mice skin = experiment: UVB-induced skin injury in mice (chronic and acute UVB exposure); assay type: in vivo; conditions: topical administration; summary statement
Method: as §1
Vascular endothelial growth factor (VEGF) was induced by UVB light and works concomitantly with ROS to induce the pathway, and was identified as an upstream regulator of the inflammation pathway.

primary melanoma tumor = experiment: Mouse model of melanoma with chronic UVB exposure; assay type: in vivo, mice; conditions: summary statement
Method: FIG. 3A. […] For Tumor+UV group * p<0.05, ** p<0.01 compared to tumor only, § p<0.05 compared to Tumor+UV+Tx group. No significant difference between tumor only and tumor+UV+Tx group at all time points. Data based on 3 experiments (n=5). FIG. 3B. […] FIG. 3C. Quantification of vessel density via CD31 staining, a marker of vessels.
FIG. 4A. Schematic diagram of experimental setup corresponding to FIG. 3A. All mice were injected with tumor on their right flank on Day 0. Luciferase imaging was done on day 5. Based on luciferase imaging data, mice were assigned to different groups (no UV—tumor only, tumor+UV, and tumor+UV+Tx). Starting on day 6, 1×1 cm area on the tumor was exposed to UVB. Vehicle or treatment was applied 2 hours post UVB exposure. A subset of the mice (n=4) was sacrificed on day 6, 10, 14 and 19 for analysis. FIG. 4B. Survival curve of mice in a separate analogous tumor study to the one represented in FIG. 3A.

Molecule	acute effects of UV-induced skin damage (mouse ears; topical administration, mice)	edema (ear thickness) (mouse ears; topical, 2 hours post UVB exposure, ear thickness 2 days after UVB, n=5, FIG. 2D)	skin injury following UVB exposure (mice skin)	melanoma tumor growth (primary melanoma tumor)
CNC(=O)c1cc(Oc2ccc(NC(=O)Nc3ccc(Cl)c(C(F)(F)F)c3)cc2)ccn1 [sorafenib]	inhibited the acute effects of UV-induced skin damage	reduces edema	prevented and/or reduced skin injury	–
bevacizumab [Avastin®]	–	–	prevented and/or reduced skin injury	prevented and/or reduced melanoma tumor growth
